Values quoted from earlier work as cited in patent US20080138412A1, “Sustained release alfuzosin hydrochl formulation and method for their production” (priority 2006, published 2008).
Where a name gives a salt, the structure may show the parent alone.

For `COc1cc2nc(N(C)CCCNC(=O)C3CCCO3)nc(N)c2cc1OC` (stereo not shown) [Alfuzosin hydrochloride], the half-life is given as “about 9 hours”.
